{
  "source": "patent US20100190686A1",
  "about": "“NOVEL SECRETED PROTEINS OF ADIPOCYTES FOR DIAGNOSTIC PURPOSES” (The University of Georgia Research Foundation, priority 2007, published 2010)",
  "key": {"3T3-L1 adipocytes": {"tested_on": "3T3-L1 adipocytes", "test": "O-GlcNAc levels by Western blot (RL-2 antibody) of whole-cell extracts, mouse immortalized adipocytes", "type": "cell-based", "details": "PUGNAc 100 μM vs low glucose (LG), FIG. 1", "procedure": "3T3s cell lines: 3T3-L1 and -F442A fibroblasts were maintained and differentiated on 10 cm plates essentially as previously described^11,25. Briefly, two days after the cells reached confluence, cells were induced to differentiate with high ([…], 3T3-L1) or low (3T3-F442A) glucose ([…]) DMEM containing 10% fetal bovine serum (3T3-L1) or 10% calf serum (3T3-F442A) via addition of 0.5 mM (115 μg/mL) 3-isobutyl-1-methyxanthine (MIX, Sigma), 1 μM (390 ng/mL) dexamethasone (Sigma), and 175 nM (1 μg/mL) recombinant insulin (human, Roche). After 48 hrs (day 2), the medium was replaced with high (3T3-L1) or low (3T3-F442A) glucose DMEM plus 10% FBS and supplemented with 1 μg/mL insulin for an additional 48 hrs. After 96 hrs (day 4), cells were maintained in appropriate medium depending on the condition being examined.\nOn the designated days (day 4 for 3T3-L1, day 5 for 3T3-F442A, and day 9 for rat primary adipocytes), adipocytes were induced with a combined treatment of low or high glucose containing 10% FBS, with or without insulin (100 nM) and PUGNAc (100 μM, TRC Inc.) according to the experimental conditions described in the results. After 24 hrs incubation, the medium was removed and the cells were washed five times with low or high glucose serum-free DMEM without antibiotics and vitamins and incubated with the last rinse for 15 min. […]"}, "rat primary adipocytes [1]": {"tested_on": "rat primary adipocytes", "test": "Quantitative LC-MS/MS and 2D-LC-MS/MS analysis of the secreted proteome of primary rat adipocytes", "type": "cell-based", "excerpt": "(§1) Rat Primary cell culture: inguinal and retroperitoneal fat pads were removed aseptically from male Sprague-Dawley rats (Harlan Industries, Indianapolis, Ind.) and primary preadipocytes were isolated as described in detail previously^26,27. After additional washing and centrifugation steps, the preadipocyte pellet was resuspended in plating medium (high glucose DMEM, antibiotics: PS, 10% FBS) and seeded at an average density of 1.35×10^4 cells/cm^2 for inguinal and 1.63×10^3 cells/cm^2 for retroperitoneal on 10 cm dishes for the differentiation. Primary cells were maintained in a humidified atmosphere containing 5% CO2 in air at 37° C. and cultured to confluence, changing the plating medium every 2 days. After 2 days of confluence, referred to as day 0, the medium was replaced with differentiation medium (high glucose DMEM containing antibiotics and 10% FBS, 0.25 mM MIX, 0.1 μM dexamethasone, and 17 nM insulin) and at day 2, an additional 17 nM of insulin was administered with the plating medium for an additional 48 hrs incubation. The cells were maintained in low glucose DMEM containing 10% FBS and treatments (see below) until harvest.\nOn the designated days (day 4 for 3T3-L1, day 5 for 3T3-F442A, and day 9 for rat primary adipocytes), adipocytes were induced with a combined treatment of low or high glucose containing 10% FBS, with or without insulin (100 nM) and PUGNAc (100 μM, TRC Inc.) according to the experimental conditions described in the results. After 24 hrs incubation, the medium was removed and the cells were washed five times with low or high glucose serum-free DMEM without antibiotics and vitamins and incubated with the last rinse for 15 min. After the final wash was removed, serum-free media supplemented with insulin (1 nM) or PUGNAc (100 μM) was added and cells were incubated for 16 hrs.\nAfter incubation, the conditioned media were harvested with extreme care and then centrifuged once at 1,800 rpm at 4° C. for 7 min. The supernatants were filtered using 1 μm syringe filters (PALL). The samples were then collected in centrifuge tubes and centrifuged again at 30,000×G at 4° C. for 30 min. The samples were then transferred to an equilibrated spin column (Centriprep YM-3, Amicon, Millipore) and buffer-exchanged at 2,800 G and 4° C. into 40 mM ammonium bicarbonate (NH4HCO3) plus 1 mM DTT and concentrated. The concentrated samples were denatured with 1 M urea, reduced with 10 mM DTT for 1 hr at 56° C., carboxyamidomethylated with 55 mM iodoacetamide in the dark for 45 min, and then digested with 5 μg trypsin (Promega) in 40 mM NH4HCO3 overnight at 37° C. After digestion, the peptides were acidified with 200 μl of 1% trifluoroacetic acid (TFA). Desalting was subsequently performed with C18 spin columns (Vydac Silica C18, The Nest Group, Inc.), and the resulting peptides were dried down in a Speed Vac and stored at −20° C. until analyzed. For the subset of samples to be analyzed for N-linked glycosylation, peptides were resuspended in 19 μl ^18O-water and 1 μl of N-glycanase (PNGaseF, Prozyme) and allowed to incubate for 18 hours at 37° C. Peptides were dried back down and resuspended in 50 μl of 40 mM NH4HCO3 with 1 μg of trypsin, to remove any possible C-terminal incorporation of ^18O from residual trypsin activity^28, for 4 hours and then dried down and stored at −20° C. until analyzed.\nThe peptides were resuspended with 78 μl of mobile phase A (0.1% formic acid, FA, in water) and 2 μl of mobile phase B (80% acetonitrile, ACN, and 0.1% formic acid in water) and filtered with 0.2 μm filters (Nanosep, PALL). The samples were loaded off-line onto a nanospray tapered capillary column/emitter (360×75×15 μm, PicoFrit, New Objective) self-packed with C18 reverse-phase (RP) resin (8.5 cm, Waters) in a Nitrogen pressure bomb for 10 min at 1,000 p.s.i. (˜5 ul load) and then separated via a 160-min linear gradient of increasing mobile phase B at a flow rate of ˜200 nl/min directly into the mass spectrometer. […]"}, "adipocytes": {"tested_on": "adipocytes", "details": "elevation of O-GlcNAc levels with PUGNAc; previously shown (ref 11); cited from earlier work"}, "rat primary adipocytes [2]": {"tested_on": "rat primary adipocytes", "test": "O-GlcNAc levels by Western blot (RL-2 antibody) of whole-cell extracts, rat primary adipocytes", "type": "cell-based", "details": "PUGNAc 100 μM vs low glucose (LG), FIG. 1", "excerpt": "as §1, with “harvest. […]” for “harvest.”"}, "[3]": {"details": "type 2 diabetes, randomized controlled trial, cited from earlier work"}, "[4]": {"details": "PUGNAc treatment vs insulin responsive (LG) condition, same direction with HG+insulin, Table 5"}},
  "data": [
    {"smiles": "CC(=O)N[C@H]1/C(=N/OC(=O)Nc2ccccc2)O[C@H](CO)[C@@H](O)[C@@H]1O", "note": "[PUGNAc]", "values": [
      {"measurement": "O-GlcNAc levels", "setting": "3T3-L1 adipocytes", "value": "elevate O-GlcNAc levels significantly"},
      {"measurement": "secretion of serine protease inhibitor 2C (reconstructed ion chromatogram of a peptide)", "setting": "rat primary adipocytes [1]; LG+PUG vs LG (normalized to 1.00), two biological replicates, FIG. 4A", "value": "upregulation"},
      {"measurement": "secretion of tetranectin (reconstructed ion chromatogram of a peptide)", "setting": "rat primary adipocytes [1]; LG+PUG vs LG (normalized to 1.00), two biological replicates, FIG. 4B", "value": "upregulation"},
      {"measurement": "secretion of cholesterol-binding protein NPC2", "setting": "rat primary adipocytes [1]; PUGNAc treatment vs insulin responsive (LG) condition, both insulin resistance conditions", "value": "upregulated"},
      {"measurement": "secretion of GP-39", "setting": "rat primary adipocytes [1]; [4]", "value": "upregulation"},
      {"measurement": "secretion of ceruloplasmin", "setting": "rat primary adipocytes [1]; [4]", "value": "upregulation"},
      {"measurement": "secretion of fibulin-2", "setting": "rat primary adipocytes [1]; [4]", "value": "downregulated"},
      {"measurement": "secretion of lipoprotein lipase", "setting": "rat primary adipocytes [1]; [4]", "value": "upregulation"},
      {"measurement": "secretion of protein-S", "setting": "rat primary adipocytes [1]; [4]", "value": "upregulation"},
      {"measurement": "secretion of slit homolog 3", "setting": "rat primary adipocytes [1]; [4]", "value": "downregulated"},
      {"measurement": "secretion of spondin", "setting": "rat primary adipocytes [1]; [4]", "value": "upregulation"},
      {"measurement": "induction of insulin resistance", "setting": "adipocytes", "value": "induces insulin resistance"},
      {"measurement": "O-GlcNAc levels", "setting": "rat primary adipocytes [2]", "value": "elevate O-GlcNAc levels significantly"}
    ]},
    {"smiles": "CN(C)C(=N)N=C(N)N", "note": "[metformin]", "values": [
      {"measurement": "cumulative incidence of monotherapy failure at 5 years", "setting": "[3]; 5 years", "value": 21, "unit": "%"}
    ]},
    {"smiles": "CN(CCOc1ccc(CC2SC(=O)NC2=O)cc1)c1ccccn1", "note": "(stereo not drawn) [rosiglitazone]", "values": [
      {"measurement": "weight gain and edema", "setting": "[3]; compared with metformin and glyburide", "value": "more weight gain and edema"}
    ]}
  ]
}
